Assay results as given in PMC6235531, “Analyzing Protein Architectures and Protein-Ligand Complexes by Integrative Structural Mass Spectrometry” (Journal of Visualized Experiments : JoVE, 2018).
Where a name gives a salt, the structure may show the parent alone.

Experiments:
HerA-NurA = target: T1, HerA-NurA (Saccharolobus solfataricus, UniProt Q97WG8); assay: native nESI mass spectrometry titration; format: binding; conditions: 5 uM protein, 0-1 mM ligand, 2 mM MgCl2, 25 °C 1 h, then 200 mM ammonium acetate pH 7; also tested with 25 bp dsDNA
T1 construct: purified HerA hexamer with NurA dimer; with DNA double-strand break repair nuclease NurA
T1 sequence (Q97WH1 whole entry, one chain of several, further chain): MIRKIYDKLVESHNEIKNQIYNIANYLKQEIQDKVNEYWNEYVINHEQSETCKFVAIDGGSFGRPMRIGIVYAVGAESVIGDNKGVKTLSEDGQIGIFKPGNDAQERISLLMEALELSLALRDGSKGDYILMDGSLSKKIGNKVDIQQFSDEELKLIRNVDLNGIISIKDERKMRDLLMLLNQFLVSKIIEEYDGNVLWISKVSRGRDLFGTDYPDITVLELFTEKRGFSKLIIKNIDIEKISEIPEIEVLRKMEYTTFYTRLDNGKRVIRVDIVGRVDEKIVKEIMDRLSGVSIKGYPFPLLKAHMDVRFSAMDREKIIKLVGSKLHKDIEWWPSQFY

HerA = target: T2, HerA (Saccharolobus solfataricus, UniProt Q97WG8); assay: native nESI mass spectrometry titration; format: binding; conditions: increasing ATP-γ-S; no NurA; 200 mM ammonium acetate
T2 construct: purified HerA without NurA, hexamer and heptamer
T2 sequence (Q97WG8 1-500): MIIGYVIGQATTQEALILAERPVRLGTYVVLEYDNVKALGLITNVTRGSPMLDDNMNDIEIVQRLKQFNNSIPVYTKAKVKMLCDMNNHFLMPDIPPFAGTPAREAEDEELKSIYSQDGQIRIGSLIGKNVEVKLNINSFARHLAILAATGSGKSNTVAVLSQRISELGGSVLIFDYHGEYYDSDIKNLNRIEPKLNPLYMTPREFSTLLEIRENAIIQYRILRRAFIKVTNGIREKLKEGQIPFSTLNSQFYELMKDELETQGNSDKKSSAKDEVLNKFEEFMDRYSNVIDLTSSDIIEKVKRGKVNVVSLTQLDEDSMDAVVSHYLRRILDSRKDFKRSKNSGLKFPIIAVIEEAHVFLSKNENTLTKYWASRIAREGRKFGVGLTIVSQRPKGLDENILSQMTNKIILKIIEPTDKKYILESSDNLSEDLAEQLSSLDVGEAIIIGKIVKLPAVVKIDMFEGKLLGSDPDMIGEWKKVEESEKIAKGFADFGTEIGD

Row | Compound | native nESI mass spectrometry titration (HerA-NurA) | native nESI mass spectrometry titration (HerA)
1 | Nc1ncnc2c1ncn2[C@@H]1O[C@H](COP(=O)(O)OP(=O)(O)O)[C@@H](O)[C@H]1O [ADP] | ATP-γ-S and ADP titrations experiments determined the pairwise nucleotide binding to HerA-NurA alone | 
2 | Nc1ncnc2c1ncn2[C@@H]1O[C@H](COP(=O)(O)OP(=O)(O)OP(O)(O)=S)[C@@H](O)[C@H]1O [ATP-γ-S, adenosine 5′-O-(3-thiotriphosphate), tetralithium salt] | ATP-γ-S and ADP titrations experiments determined the pairwise nucleotide binding to HerA-NurA alone | Number of ATP-γ-S molecules bound is shown on the spectra
